Measured values published in PMC11149917, “Translational and Therapeutic Evaluation of RAS-GTP Inhibition by RMC-6236 in RAS-Driven Cancers” (Cancer Discovery, 2024).
Where two headings read alike, the source gives them in different places.

Assay: Mouse blood and tissue PK (LC/MS-MS)
Type: in vivo
Conditions: for AUC(0-t): read-out: Blood AUClast
Experimental: For single-dose PKPD study, mice were randomized and assigned into groups (n = 3/dose/time point). […] Blood and tissues, including the tumor, brain, colon, ear skin, and muscle, were harvested at indicated time points. […] The whole blood, tumor, brain, colon, and ear skin concentrations of RMC-6236 were determined using liquid chromatography–tandem mass spectrometry (LC/MS-MS) methods. […] After thorough mixing and centrifugation, the supernatant was diluted with water or directly analyzed on a Sciex 5500 or Sciex 6500+ triple quadrupole mass spectrometer equipped with an ACQUITY or Shimadzu UPLC system. […] Bioanalysis on blood and tissue samples from xenograft models was run at Pharmaron and Wuxi AppTec. Concentrations reported as below the quantification limit were treated as zero for PK analysis. PK parameters were calculated by noncompartmental analysis of the concentration–time profiles using Phoenix WinNonLin (version 8.3 Certara). Apparent terminal elimination half-life (t1/2) values were calculated as ln(2)/k, where k represents the terminal elimination rate constant. Area under the concentration–time curve (AUC) values were estimated using a linear trapezoidal method. AUClast values were calculated from the dosing time to the last quantifiable concentration. Maximum concentration (Cmax) was recorded as observed.

[1] = mouse, whole blood, oral, 10 mg/kg, Model Validation Dataset, 10mg/kg_study6, read-out: Blood Concentration
[2] = mouse, whole blood, oral, 25 mg/kg, Model Development Dataset, 25mg/kg_study8, read-out: Blood Concentration
[3] = mouse, whole blood, oral, 25 mg/kg, Model Development Dataset, 25mg/kg_study8r (doses every 24 h, 0-[…])
[4] = mouse, whole blood, oral, 25 mg/kg, Model Validation Dataset, 25mg/kg_study6, read-out: Blood Concentration
[5] = mouse, whole blood, oral, 40 mg/kg, Model Development Dataset, 40mg/kg_study8, read-out: Blood Concentration
[6] = mouse, whole blood, oral, 40 mg/kg, Model Development Dataset, 40mg/kg_study8r (doses every 24 h, 0-[…])
[7] = mouse, whole blood, oral, 50 mg/kg, Model Validation Dataset, 50mg/kg_study6, read-out: Blood Concentration
[8] = mouse, whole blood, po, 1 mg/kg, NCI-H441 #1 (1 mg/kg), QD x 28 days
[9] = mouse, whole blood, po, 3 mg/kg, NCI-H441 (3 mg/kg), single dose
[10] = mouse, whole blood, po, 5 mg/kg, NCI-H441 #1 (5 mg/kg), QD x 28 days
[11] = mouse, whole blood, po, 10 mg/kg, NCI-H441 #1 (10 mg/kg), QD x 28 days
[12] = mouse, whole blood, po, 10 mg/kg, NCI-H441 (10 mg/kg), single dose
[13] = mouse, whole blood, po, 25 mg/kg, HPAC (25 mg/kg), single dose
[14] = mouse, whole blood, po, 25 mg/kg, KP-4 (25 mg/kg), single dose
[15] = mouse, whole blood, po, 25 mg/kg, NCI-H358 (25 mg/kg), single dose
[16] = mouse, whole blood, po, 25 mg/kg, NCI-H441 #1 (25 mg/kg), QD x 28 days
[17] = mouse, whole blood, po, 25 mg/kg, NCI-H441 #2 (25 mg/kg), QD x 10 days
[18] = mouse, whole blood, po, 25 mg/kg, NCI-H441 (25 mg/kg), single dose
[19] = mouse, whole blood, po, 25 mg/kg, NCI-H2122 (25 mg/kg), single dose

Q: Which results are given for `CCn1c(-c2cc(N3CCN(C)CC3)cnc2[C@H](C)OC)c2c3cc(ccc31)-c1csc(n1)C[C@H](NC(=O)[C@H]1C[C@@H]1C)C(=O)N1CCC[C@H](N1)C(=O)OCC(C)(C)C2` [RMC-6236]?
A: concentration at 24 h (mouse, tumor, oral, 50 mg/kg, Model Validation Dataset, 50mg/kg_study6, 24 h, read-out: Tumor Concentration): 2100 nM; concentration at 48 h (mouse, tumor, oral, 50 mg/kg, Model Validation Dataset, 50mg/kg_study6, 48 h, read-out: Tumor Concentration): 1240 nM; concentration at 72 h (mouse, tumor, oral, 50 mg/kg, Model Validation Dataset, 50mg/kg_study6, 72 h): 621 nM; concentration at 8 h (mouse, tumor, oral, 50 mg/kg, NCI-H441 xenograft tumor, study NCI-H441#6, 50 mg/kg, 8h, read-out: RMC-6236 (nM) Tumor): 4770 nM; concentration at 24 h (mouse, tumor, oral, 50 mg/kg, NCI-H441 xenograft tumor, study NCI-H441#6, 50 mg/kg, 24h, read-out: RMC-6236 (nM) Tumor): 1960 nM; concentration at 8 h (mouse, tumor, oral, 100 mg/kg, KP-4, study KP-4 #4, 100 mg/kg, 8h, read-out: RMC-6236 (nM) Tumor): 10200 nM; concentration at 24 h (mouse, tumor, oral, 100 mg/kg, KP-4, study KP-4 #4, 100 mg/kg, 24h, read-out: RMC-6236 (nM) Tumor): 7000 nM; concentration at 24 h (mouse, tumor, oral, 100 mg/kg, NCI-H441 xenograft tumor, study NCI-H441#6, 100 mg/kg, 24h, read-out: RMC-6236 (nM) Tumor): 3020 nM; concentration at 48 h (mouse, tumor, oral, 100 mg/kg, NCI-H441 xenograft tumor, study NCI-H441#6, 100 mg/kg, 48h, read-out: RMC-6236 (nM) Tumor): 2060 nM; half-life (mouse, tumor, po, 3 mg/kg, NCI-H441 (3 mg/kg), single dose, read-out: Tumor t1/2 (converted)): 17.1 h; half-life (mouse, tumor, po, 25 mg/kg, HPAC (25 mg/kg), single dose, read-out: Tumor t1/2 (converted)): 14 h; half-life (mouse, tumor, po, 25 mg/kg, KP-4 (25 mg/kg), single dose, read-out: Tumor t1/2 (converted)): 11.3 h; half-life (mouse, tumor, po, 25 mg/kg, NCI-H358 (25 mg/kg), single dose, read-out: Tumor t1/2 (converted)): 10.2 h; half-life (mouse, tumor, po, 25 mg/kg, NCI-H441 (25 mg/kg), single dose, read-out: Tumor t1/2 (converted)): 46.1 h; concentration at 0.5 h (mouse, whole blood, oral, 10 mg/kg, Model Validation Dataset, 10mg/kg_study6): 435 nM; concentration at 1 h [1]: 642 nM; concentration at 2 h [1]: 642 nM; concentration at 4 h [1]: 441 nM; concentration at 8 h (mouse, whole blood, oral, 10 mg/kg, Model Validation Dataset, 10mg/kg_study6, 8 h, read-out: Blood Concentration): 309 nM; concentration at 24 h (mouse, whole blood, oral, 10 mg/kg, Model Validation Dataset, 10mg/kg_study6, 24 h, read-out: Blood Concentration): 3.91 nM; Cmax (mouse, whole blood, oral, 10 mg/kg, Naïve Mice #1 (10 mg/kg), single dose): 744 ng/mL; concentration at 0.5 h (mouse, whole blood, oral, 25 mg/kg, Model Development Dataset, 25mg/kg_study8): 806 nM; concentration at 1 h [2]: 979 nM; concentration at 2 h [2]: 1410 nM; concentration at 4 h [2]: 1430 nM; concentration at 8 h (mouse, whole blood, oral, 25 mg/kg, Model Development Dataset, 25mg/kg_study8, 8 h, read-out: Blood Concentration): 802 nM; concentration at 24 h (mouse, whole blood, oral, 25 mg/kg, Model Development Dataset, 25mg/kg_study8, 24 h, read-out: Blood Concentration): 7.71 nM; concentration at 216.5 h [3]: 1180 nM; concentration at 220 h [3]: 849 nM; concentration at 240 h (mouse, whole blood, oral, 25 mg/kg, Model Development Dataset, 25mg/kg_study8r (doses every 24 h, 0-[…]), read-out: Blood Concentration): 5.4 nM; concentration at 0.5 h (mouse, whole blood, oral, 25 mg/kg, Model Validation Dataset, 25mg/kg_study6): 598 nM; concentration at 1 h [4]: 885 nM; concentration at 2 h [4]: 1540 nM; concentration at 4 h [4]: 1140 nM; concentration at 8 h (mouse, whole blood, oral, 25 mg/kg, Model Validation Dataset, 25mg/kg_study6, 8 h, read-out: Blood Concentration): 755 nM; concentration at 24 h (mouse, whole blood, oral, 25 mg/kg, Model Validation Dataset, 25mg/kg_study6, 24 h, read-out: Blood Concentration): 15.6 nM; concentration at 0.5 h (mouse, whole blood, oral, 40 mg/kg, Model Development Dataset, 40mg/kg_study8): 1320 nM; concentration at 1 h [5]: 1580 nM; concentration at 2 h [5]: 2770 nM; concentration at 4 h [5]: 1480 nM; concentration at 8 h (mouse, whole blood, oral, 40 mg/kg, Model Development Dataset, 40mg/kg_study8, 8 h, read-out: Blood Concentration): 1200 nM; concentration at 24 h (mouse, whole blood, oral, 40 mg/kg, Model Development Dataset, 40mg/kg_study8, 24 h, read-out: Blood Concentration): 8 nM; concentration at 216.5 h [6]: 1760 nM; concentration at 220 h [6]: 1550 nM; concentration at 240 h (mouse, whole blood, oral, 40 mg/kg, Model Development Dataset, 40mg/kg_study8r (doses every 24 h, 0-[…]), read-out: Blood Concentration): 7.54 nM; concentration at 0.5 h (mouse, whole blood, oral, 50 mg/kg, Model Validation Dataset, 50mg/kg_study6): 1420 nM; concentration at 1 h [7]: 1820 nM; concentration at 2 h [7]: 2770 nM; concentration at 4 h [7]: 1980 nM; concentration at 8 h (mouse, whole blood, oral, 50 mg/kg, Model Validation Dataset, 50mg/kg_study6, 8 h, read-out: Blood Concentration): 1350 nM; concentration at 24 h (mouse, whole blood, oral, 50 mg/kg, Model Validation Dataset, 50mg/kg_study6, 24 h, read-out: Blood Concentration): 22.4 nM; concentration at 48 h (mouse, whole blood, oral, 50 mg/kg, Model Validation Dataset, 50mg/kg_study6, 48 h, read-out: Blood Concentration): 2.76 nM; Cmax (mouse, whole blood, oral, 50 mg/kg, Naïve Mice #1 (50 mg/kg), single dose): 2960 ng/mL; Cmax [8]: 79.2 ng/mL; AUC(0-t) [8]: 384 ng·h/mL; half-life (mouse, whole blood, po, 1 mg/kg, NCI-H441 #1 (1 mg/kg), QD x 28 days, read-out: Blood t1/2 (converted)): 2.9 h; Cmax [9]: 219 ng/mL; AUC(0-t) [9]: 1180 ng·h/mL; Cmax [10]: 286 ng/mL; AUC(0-t) [10]: 1330 ng·h/mL; half-life (mouse, whole blood, po, 5 mg/kg, NCI-H441 #1 (5 mg/kg), QD x 28 days, read-out: Blood t1/2 (converted)): 4.09 h; Cmax [11]: 533 ng/mL; AUC(0-t) [11]: 2780 ng·h/mL; half-life (mouse, whole blood, po, 10 mg/kg, NCI-H441 #1 (10 mg/kg), QD x 28 days, read-out: Blood t1/2 (converted)): 3.22 h; Cmax [12]: 520 ng/mL; AUC(0-t) [12]: 3810 ng·h/mL; half-life (mouse, whole blood, po, 10 mg/kg, NCI-H441 (10 mg/kg), single dose, read-out: Blood t1/2 (converted)): 2.93 h; Cmax [13]: 1310 ng/mL; AUC(0-t) [13]: 12000 ng·h/mL; half-life (mouse, whole blood, po, 25 mg/kg, HPAC (25 mg/kg), single dose, read-out: Blood t1/2 (converted)): 2.62 h; Cmax [14]: 1460 ng/mL; AUC(0-t) [14]: 12500 ng·h/mL; half-life (mouse, whole blood, po, 25 mg/kg, KP-4 (25 mg/kg), single dose, read-out: Blood t1/2 (converted)): 2.61 h; Cmax [15]: 1150 ng/mL; AUC(0-t) [15]: 8720 ng·h/mL; half-life (mouse, whole blood, po, 25 mg/kg, NCI-H358 (25 mg/kg), single dose, read-out: Blood t1/2 (converted)): 2.78 h; Cmax [16]: 1250 ng/mL; AUC(0-t) [16]: 6950 ng·h/mL; half-life (mouse, whole blood, po, 25 mg/kg, NCI-H441 #1 (25 mg/kg), QD x 28 days, read-out: Blood t1/2 (converted)): 3.46 h; Cmax [17]: 1080 ng/mL; AUC(0-t) [17]: 6660 ng·h/mL; half-life (mouse, whole blood, po, 25 mg/kg, NCI-H441 #2 (25 mg/kg), QD x 10 days, read-out: Blood t1/2 (converted)): 2.67 h; Cmax [18]: 1250 ng/mL; AUC(0-t) [18]: 9060 ng·h/mL; half-life (mouse, whole blood, po, 25 mg/kg, NCI-H441 (25 mg/kg), single dose, read-out: Blood t1/2 (converted)): 3.11 h; Cmax [19]: 1110 ng/mL; AUC(0-t) [19]: 7930 ng·h/mL; half-life (mouse, whole blood, po, 25 mg/kg, NCI-H2122 (25 mg/kg), single dose, read-out: Blood t1/2 (converted)): 4.5 h; RMC-6236 (nM) Tumor (sheet Ear Skin, model Capan-2, study Capan-2 #3_PHA 2023, 3 mg/kg, 48h): BQL; RMC-6236 (nM) Tumor (sheet colon, Capan-2, Capan-2 #3_PHA 2023, 3 mg/kg, 24h): BQL; RMC-6236 (nM) Tumor (sheet colon, Capan-2, Capan-2 #3_PHA 2023, 3 mg/kg, 48h): BQL; RMC-6236 (nM) Tumor (sheet colon, Capan-2, Capan-2 #3_PHA 2023, 10 mg/kg, 48h): BQL; RMC-6236 (nM) Tumor (sheet colon, Capan-2, Capan-2 #3_PHA 2023, 25 mg/kg, 48h): BQL; RMC-6236 (nM) Tumor (sheet colon, Capan-2, Capan-2 #3_PHA 2023, 50 mg/kg, 48h): BQL; RMC-6236 (nM) Tumor (sheet colon, Capan-2, Capan-2 #3_PHA 2023, 100 mg/kg, 48h): BQL; RMC-6236 (nM) Tumor (sheet colon, KP-4, KP-4 #5, 25 mg/kg, 48h): BQL
